The subject of the first data set is Field Pansy. Set-up: species or system Viola avensis. The following applies: in vivo.
As to `Cc1cc(Cl)ccc1OCC(=O)O` [MCPA, (4-chloro-2-methylphenoxy)acetic acid], the “plant vigour of Pansy versus untreated” value is “more vigorous plants than untreated only plants”.

Test system in the next data set: not given
The following applies: Table 1, carriers; cited from earlier work.
With `C[C@@H]1CC[C@@H](C(C)(C)S)C(=O)C1` [(1R,4R)-8-mercapto-3-p-menthanone], the “logP(o/w)” value was 2.9.

The data set is the same for the next values; noted with them: Table 4, no pH given; cited from earlier work.
On to `CCc1cccc(C)c1N(C(=O)CCl)C(C)COC` (stereo not shown) [Metolachlor], for which the “Log P” value is recorded as 3.00.
With `CS(=O)(=O)c1ccc(C(=O)C2C(=O)CCCC2=O)c([N+](=O)[O-])c1` [Mesotrione], the “Log P” value is reported as 2.2.
As for `CCN(C(=O)n1nnn(-c2ccccc2Cl)c1=O)C1CCCCC1` [Fentrazamide], the “Log P” value was 3.60.

Still in this data set, the particulars now being: Table 5, no pH given; cited from earlier work.
As for `CNc1cnn(-c2cccc(C(F)(F)F)c2)c(=O)c1Cl` [norflurazon], the “Log Pow” value is given as 2.5.
For `Cc1nnc(-c2ccccc2)c(=O)n1N` [metamitron], the “Log Pow” value is listed as 0.8.
For the compound `CCSC(=O)N1CCCCCC1` [molinate], the “Log Pow” value was 2.9.
Regarding `CCCC(=NOCC)C1=C(O)CC(C2CCCSC2)CC1=O` (stereo not shown) [cycloxydim], the “Log Pow” value is listed as 1.4.
Consider `CCOCCOC(=O)C(C)Oc1ccc(Oc2ncc(C(F)(F)F)cc2Cl)cc1` (stereo not shown) [haloxyfop-etotyl], for which the “Log Pow” value is 4.3.
Turning to `CCNc1nc(NC(C)(C)C)nc(OC)n1` [terbumeton], the “Log Pow” value was 3.
As for `CCCN(CCC)c1c([N+](=O)[O-])cc(C(F)(F)F)cc1[N+](=O)[O-]` [trifluralin], the “Log Pow” value is given as 4.8.
Consider `CCOc1nc(F)cc2nc(S(=O)(=O)Nc3c(Cl)cccc3C(=O)OC)nn12` [cloransulam-methyl], for which the “Log Pow” value was 1.2.
As to `CN(C)C(=O)Nc1ccccc1` [fenuron], the “Log Pow” value is recorded as 1.4.
For the compound `CCNc1nc(Cl)nc(NC(C)(C)C)n1` [terbuthylazine], the “Log Pow” value is 3.2.
As for `CCOc1cc(Oc2ccc(C(F)(F)F)cc2Cl)ccc1[N+](=O)[O-]` [oxyfluorfen], the “Log Pow” value was 4.5.
As for `CCOC(=O)c1cnn(C)c1S(=O)(=O)NC(=O)Nc1nc(OC)cc(OC)n1` [pyrazosulfuron-ethyl], the “Log Pow” value is listed as 1.3.
For the compound `CCc1cccc(C)c1N(C(=O)CCl)[C@@H](C)COC` [S-metolachlor], the “Log Pow” value is reported as 3.1.
For `COc1ccc(NC(=O)N(C)C)cc1Cl` [metoxuron], the “Log Pow” value is given as 1.6.
Take `COc1ccsc1CN(C(=O)CCl)c1c(C)cccc1C` [thenylchlor]: the “Log Pow” value is reported as 3.5.
Take `CC(=O)Nc1cc(NS(=O)(=O)C(F)(F)F)c(C)cc1C` [mefluidide]: the “Log Pow” value is listed as 2.
Take `COc1cc(OC)nc(Oc2cccc(Oc3nc(OC)cc(OC)n3)c2C(=O)ON=C(c2ccccc2)c2ccccc2)n1` [pyribenzoxim]: the “Log Pow” value is listed as 3.
On to `CCc1cccc(C)c1N(COC(C)C)C(=O)CCl` [propisochlor], for which the “Log Pow” value is reported as 3.5.
Consider `CCCCOC(=O)C(C)Oc1ccc(Oc2ccc(C(F)(F)F)cn2)cc1` (stereo not shown) [fluazifop-butyl], for which the “Log Pow” value was 4.5.
`C#CCN1C(=O)COc2cc(F)c(N3C(=O)C4=C(CCCC4)C3=O)cc21` [flumioxazin]: the “Log Pow” value is 1.3.
In the case of `Cc1ccc(NC(=O)N(C)C)cc1Cl` [chlorotoluron], the “Log Pow” value is reported as 2.5.
For `CCc1cccc(C)c1N(C(=O)CCl)C(C)COC` (stereo not shown) [Metolachlor], the “Log Pow” value is 2.9.
For the compound `CCNc1nc(Cl)nc(NCC)n1` [simazine], the “Log Pow” value is recorded as 2.1.
`COC(=O)[C@@H](C)Oc1ccc(Oc2ncc(C(F)(F)F)cc2Cl)cc1` [haloxyfop-P-methyl]: the “Log Pow” value is listed as 4.
With `CCCOCCN(C(=O)CCl)c1c(CC)cccc1CC` [pretilachlor], the “Log Pow” value is given as 4.1.
With `CCCCCCCCSC(=O)Oc1cc(Cl)nnc1-c1ccccc1` [pyridate], the “Log Pow” value is listed as 4.
On to `Cc1cccc(C)c1N(Cn1cccn1)C(=O)CCl` [metazachlor], for which the “Log Pow” value is given as 2.1.
`CCC(=O)Nc1ccc(Cl)c(Cl)c1` [propanil]: the “Log Pow” value is listed as 3.3.
`Cc1ccc(C(=O)COc2c(C(=O)c3ccc(Cl)c(C)c3Cl)c(C)nn2C)cc1` [benzofenap]: the “Log Pow” value is listed as 4.7.
Consider `O=C(O)c1cc(Oc2ccc(C(F)(F)F)cc2Cl)ccc1[N+](=O)[O-]` [acifluorfen], for which the “Log Pow” value is recorded as 4.2.
Turning to `CON(C)C(=O)Nc1ccc(Cl)c(Cl)c1` [linuron], the “Log Pow” value is reported as 3.
For `CCC(CC)Nc1c([N+](=O)[O-])cc(C)c(C)c1[N+](=O)[O-]` [pendimethalin], the “Log Pow” value is 5.2.
`CCCCOC(=O)[C@@H](C)Oc1ccc(Oc2ccc(C(F)(F)F)cn2)cc1` [fluazifop-p-butyl]: the “Log Pow” value was 4.5.
In the case of `N#Cc1cc(Br)c(O)c(Br)c1` [bromoxynil], the “Log Pow” value is listed as 2.8.
`C#CCOc1cc(-n2nc3n(c2=O)CCCC3)c(Cl)cc1Cl` [azafenidin]: the “Log Pow” value is listed as 2.7.
`CCOC1Oc2ccc(OS(C)(=O)=O)cc2C1(C)C` (stereo not shown) [ethofumesate]: the “Log Pow” value is listed as 2.7.
Consider `COC(=O)c1cc(Oc2ccc(Cl)cc2Cl)ccc1[N+](=O)[O-]` [bifenox], for which the “Log Pow” value is reported as 4.5.
In the case of `CC(C)C1(C)N=C(c2nc3ccccc3cc2C(=O)O)NC1=O` (stereo not shown) [imazaquin], the “Log Pow” value is 2.9.
As to `C[C@@H](Oc1ccc(Oc2ccc(C(F)(F)F)cn2)cc1)C(=O)O` [fluazifop-P], the “Log Pow” value is 3.1.
Consider `CC(Oc1ccc(Oc2ncc(C(F)(F)F)cc2Cl)cc1)C(=O)O` (stereo not shown) [haloxyfop], for which the “Log Pow” value was 3.4.
Consider `C#CC(C)(C)NC(=O)c1cc(Cl)cc(Cl)c1` [propyzamide], for which the “Log Pow” value is 3.2.
Turning to `CON(C)C(=O)Nc1ccc(Oc2ccc3c(c2)OC(C)(OC)CC3(C)C)cc1` (stereo not shown) [metobenzuron], the “Log Pow” value is given as 6.3.
As for `COC(=O)c1c(Cl)c(Cl)c(C(=O)OC)c(Cl)c1Cl` [chlorthal-dimethyl], the “Log Pow” value is listed as 4.3.

The same data set, now with this note: Table 5, pH 5; cited from earlier work.
Regarding `O=C(O)COc1nc(Cl)c(Cl)cc1Cl` [triclopyr], the “Log Pow” value is recorded as 0.4 (pH 5).

Still in this data set, the particulars now being: Table 5, pH 7; cited from earlier work.
Regarding `COC(=O)c1ccccc1S(=O)(=O)NC(=O)Nc1nc(OC(F)F)cc(OC(F)F)n1` [primisulfuron-methyl], the “Log Pow” value was 0.2 (pH 7).

The same data set, now with this note: Table 6; cited from earlier work.
What is called logP is the decadic logarithm of the partition coefficient of the neutral form, usually between octanol and water. As for `CNc1cnn(-c2cccc(C(F)(F)F)c2)c(=O)c1Cl` [norflurazon], the logP is recorded as 2.45.
For `CCOc1cc(Oc2ccc(C(F)(F)F)cc2Cl)ccc1[N+](=O)[O-]` [oxyfluorfen], the logP is 4.5.
As to `CCOC(=O)Cc1cccc2ccccc12` [ethyl 1-naphthylacetate], the lipophilicity (logP) is listed as 3.8.
As to `O=C(OCc1ccccc1)c1sc(Cl)nc1C(F)(F)F` [flurazole], the logP is on record as 4.1.
Turning to `CCC(CC)Nc1c([N+](=O)[O-])cc(C)c(C)c1[N+](=O)[O-]` [pendimethalin], the lipophilicity (logP) is 5.2.
`N#Cc1cc(Br)c(O)c(Br)c1` [bromoxynil]: the logP is 2.8.

The data set is the same for the next values; noted with them: pH 1; cited from earlier work.
Take `CS(=O)(=O)NC(=O)c1cc(Oc2ccc(C(F)(F)F)cc2Cl)ccc1[N+](=O)[O-]` [fomesafen]: the “Log Pow” value was 2.9 (pH 1).
Turning to `Cc1cc(Cl)ccc1OCC(=O)O` [MCPA, (4-chloro-2-methylphenoxy)acetic acid], the “Log Pow” value is 2.8 (pH 1).

The same data set, now with this note: pH 2; cited from earlier work.
Consider `CS(=O)(=O)c1cc(Cl)ccc1C(=O)c1cnoc1C1CC1` [Isoxachlortole], for which the “Log P” value is 2.76 (pH 2).

Staying with this data set, now noted: pH 3.9; cited from earlier work.
On to `COC(=O)Nc1cccc(OC(=O)Nc2cccc(C)c2)c1` [phenmedipham], for which the “Log Pow” value is reported as 3.6 (pH 3.9).

Staying with this data set, now noted: pH 5; cited from earlier work.
Consider `COC(=O)c1ccccc1S(=O)(=O)NC(=O)Nc1nc(C)cc(C)n1` [sulfometuron-methyl], for which the “Log Pow” value was 1.2 (pH 5).

The data set is the same for the next values; noted with them: pH 7; cited from earlier work.
Turning to `CCc1cnc(C2=NC(C)(C(C)C)C(=O)N2)c(C(=O)O)c1` (stereo not shown) [imazethapyr], the “Log P” value is given as 1.49 (pH 7).
`CC(C)c1nn(C(=O)NC(C)(C)C)c(=O)n1N` [amicarbazone]: the “Log P” value is on record as 1.23 (pH 7).

The data set is the same for the next values; noted with them: pH 9; cited from earlier work.
For the compound `COc1cc(OC)n2nc(S(=O)(=O)Nc3c(Cl)ccc(C)c3Cl)nc2n1` [metosulam], the “Log Pow” value is listed as 3.1 (pH 9).

Source of the values: US20080242544A1, “Phytoactive Composition” (priority 2004, published 2008).
